According to the supplement of paper PMC13380429:

Experiments:
[1] = tested on: A549-ACE2; assay: drug-induced phospholipidosis relative to tamoxifen; higher = more phospholipidosis
[2] = tested on: A549-ACE2 infected with SARS-CoV-2; assay: cell count relative to DMSO; higher = less toxic; details: 24 h
[3] = tested on: Vero E6; assay: drug sensitivity score (DSS) for viability; higher = more toxic; extreme values may be limits of the assay; details: 72 h
[4] = tested on: U2OS; assay: as above; details: 72 h
[5] = tested on: Calu-3; assay: as above; details: 72 h
[6] = tested on: HepG2; assay: as above; details: 72 h
[7] = tested on: Caco-2; assay: as above; details: 72 h
[8] = tested on: A549-ACE2; assay: phospholipidosis EC50; higher = less potent phospholipidosis inducer
[9] = tested on: Vero E6; assay: relative viability EC50 (midpoint between 100% and the lowest measured viability); higher = less toxic; details: 72 h
[10] = tested on: Calu-3; assay: as above; details: 72 h
[11] = tested on: HepG2; assay: as above; details: 72 h
[12] = tested on: Caco-2; assay: as above; details: 72 h
[13] = tested on: Vero E6; assay: cell viability relative to DMSO; higher = less toxic; details: 72 h
[14] = tested on: U2OS; assay: as above; details: 72 h
[15] = tested on: Calu-3; assay: as above; details: 72 h
[16] = tested on: HepG2; assay: as above; details: 72 h
[17] = tested on: Caco-2; assay: as above; details: 72 h
[18] = tested on: A549-ACE2 infected with SARS-CoV-2; assay: morphology score (similarity to uninfected cells); higher = more like uninfected cells; details: 24 h
[19] = tested on: A549-ACE2 infected with SARS-CoV-2; assay: SARS-CoV-2 infection rate relative to DMSO; higher = more infection; details: 24 h
[20] = tested on: U2OS; assay: relative viability EC50 (midpoint between 100% and the lowest measured viability); higher = less toxic; details: 72 h

What does the source list for `CC(C)c1ccc(C(=O)c2cccs2)c(SCCCCCCCCN(C)C)n1`?
drug-induced phospholipidosis ([1]; 0.3 µM, 24 h): 6.35%; drug-induced phospholipidosis ([1]; 0.3 µM, 48 h): 4.72%; drug-induced phospholipidosis ([1]; 0.3 µM, 72 h): 0.841%; drug-induced phospholipidosis ([1]; 0.833333 µM, 24 h): 10.2%; drug-induced phospholipidosis ([1]; 0.833333 µM, 48 h): 6.5%; drug-induced phospholipidosis ([1]; 0.833333 µM, 72 h): 8.09%; drug-induced phospholipidosis ([1]; 3.33333 µM, 24 h): 76.1%; drug-induced phospholipidosis ([1]; 3.33333 µM, 48 h): 79.5%; drug-induced phospholipidosis ([1]; 3.33333 µM, 72 h): 57.5%; drug-induced phospholipidosis ([1]; 6.66667 µM, 24 h): 105%; drug-induced phospholipidosis ([1]; 6.66667 µM, 48 h): 112%; drug-induced phospholipidosis ([1]; 6.66667 µM, 72 h): 114%; drug-induced phospholipidosis ([1]; 10 µM, 24 h): 129%; drug-induced phospholipidosis ([1]; 10 µM, 48 h): 127%; drug-induced phospholipidosis ([1]; 10 µM, 72 h): 131%; drug-induced phospholipidosis ([1]; 30 µM, 24 h): 33.4%; cell count ([2]; 0.1 µM): 98%; cell count ([2]; 0.3 µM): 101%; cell count ([2]; 1 µM): 111%; cell count ([2]; 3 µM): 123%; drug sensitivity score [3]: 1.4; drug sensitivity score [4]: 1.3; drug sensitivity score [5]: 3.6; drug sensitivity score [6]: 3.6; drug sensitivity score [7]: 3.7; phospholipidosis EC50 ([8]; 24 h): 2.88 µM; phospholipidosis EC50 ([8]; 48 h): 2.9 µM; phospholipidosis EC50 ([8]; 72 h): 4.11 µM; relative viability EC50 [9]: > 10 µM; relative viability EC50 [10]: 3.55 µM; relative viability EC50 [11]: 3.39 µM; relative viability EC50 [12]: 2.32 µM; cell viability ([13]; 1 nM): 100%; cell viability ([13]; 10 nM): 99.8%; cell viability ([13]; 100 nM): 101%; cell viability ([13]; 1000 nM): 94.6%; cell viability ([13]; 10000 nM): 78.4%; cell viability ([14]; 1 nM): 99.4%; cell viability ([14]; 10 nM): 95.9%; cell viability ([14]; 100 nM): 101%; cell viability ([14]; 1000 nM): 98.9%; cell viability ([14]; 10000 nM): 71.6%; cell viability ([15]; 1 nM): 101%; cell viability ([15]; 10 nM): 120%; cell viability ([15]; 100 nM): 97.4%; cell viability ([15]; 1000 nM): 106%; cell viability ([15]; 10000 nM): 27.9%; cell viability ([16]; 1 nM): 97.9%; cell viability ([16]; 10 nM): 94.6%; cell viability ([16]; 100 nM): 109%; cell viability ([16]; 1000 nM): 103%; cell viability ([16]; 10000 nM): 29.4%; cell viability ([17]; 1 nM): 106%; cell viability ([17]; 10 nM): 91.6%; cell viability ([17]; 100 nM): 97.6%; cell viability ([17]; 1000 nM): 94.6%; cell viability ([17]; 10000 nM): 47.3%; morphology score ([18]; 0.1 µM): -0.04; morphology score ([18]; 0.3 µM): 0.17; morphology score ([18]; 1 µM): 0.57; morphology score ([18]; 3 µM): 0.88; SARS-CoV-2 infection rate ([19]; 0.1 µM): 99%; SARS-CoV-2 infection rate ([19]; 0.3 µM): 95%; SARS-CoV-2 infection rate ([19]; 1 µM): 74%; SARS-CoV-2 infection rate ([19]; 3 µM): 23%

Which results are given for `CCN1CCN(c2ccc(Nc3cc(N(C)C(=O)Nc4c(Cl)c(OC)cc(OC)c4Cl)ncn3)cc2)CC1` [NVP-BGJ398]?
drug-induced phospholipidosis ([1]; 0.3 µM, 24 h): 7.01%; drug-induced phospholipidosis ([1]; 0.3 µM, 48 h): 5.03%; drug-induced phospholipidosis ([1]; 0.3 µM, 72 h): 3.12%; drug-induced phospholipidosis ([1]; 0.833333 µM, 24 h): -3.2%; drug-induced phospholipidosis ([1]; 0.833333 µM, 48 h): -4.72%; drug-induced phospholipidosis ([1]; 0.833333 µM, 72 h): -9.17%; drug-induced phospholipidosis ([1]; 3.33333 µM, 24 h): 0.41%; drug-induced phospholipidosis ([1]; 3.33333 µM, 48 h): -2.05%; drug-induced phospholipidosis ([1]; 3.33333 µM, 72 h): -6.95%; drug-induced phospholipidosis ([1]; 6.66667 µM, 24 h): 0.28%; drug-induced phospholipidosis ([1]; 6.66667 µM, 48 h): 0.17%; drug-induced phospholipidosis ([1]; 6.66667 µM, 72 h): -2.87%; drug-induced phospholipidosis ([1]; 10 µM, 24 h): 8.33%; drug-induced phospholipidosis ([1]; 10 µM, 48 h): 2.69%; drug-induced phospholipidosis ([1]; 10 µM, 72 h): -1.22%; drug-induced phospholipidosis ([1]; 30 µM, 24 h): 40.8%; drug-induced phospholipidosis ([1]; 30 µM, 48 h): 25.9%; drug-induced phospholipidosis ([1]; 30 µM, 72 h): 27.1%; cell count ([2]; 0.1 µM): 91%; cell count ([2]; 0.3 µM): 91%; cell count ([2]; 1 µM): 98%; cell count ([2]; 3 µM): 93%; drug sensitivity score [3]: 2.4; drug sensitivity score [4]: 0.1; drug sensitivity score [5]: 0; drug sensitivity score [6]: 1.1; drug sensitivity score [7]: 1.5; relative viability EC50 [20]: > 10 µM; relative viability EC50 [10]: > 10 µM; relative viability EC50 [12]: > 10 µM; cell viability ([13]; 1 nM): 91.7%; cell viability ([13]; 10 nM): 101%; cell viability ([13]; 100 nM): 90.5%; cell viability ([13]; 1000 nM): 90.8%; cell viability ([13]; 10000 nM): 66.2%; cell viability ([14]; 1 nM): 104%; cell viability ([14]; 10 nM): 95.1%; cell viability ([14]; 100 nM): 98.1%; cell viability ([14]; 1000 nM): 89.5%; cell viability ([14]; 10000 nM): 90.5%; cell viability ([15]; 1 nM): 116%; cell viability ([15]; 10 nM): 102%; cell viability ([15]; 100 nM): 106%; cell viability ([15]; 1000 nM): 99.4%; cell viability ([15]; 10000 nM): 89.8%; cell viability ([16]; 1 nM): 111%; cell viability ([16]; 10 nM): 100%; cell viability ([16]; 100 nM): 110%; cell viability ([16]; 1000 nM): 106%; cell viability ([16]; 10000 nM): 68%; cell viability ([17]; 1 nM): 109%; cell viability ([17]; 10 nM): 102%; cell viability ([17]; 100 nM): 103%; cell viability ([17]; 1000 nM): 95.4%; cell viability ([17]; 10000 nM): 76.1%; morphology score ([18]; 0.1 µM): 0.05; morphology score ([18]; 0.3 µM): -0.02; morphology score ([18]; 1 µM): 0.02; morphology score ([18]; 3 µM): 0.2; SARS-CoV-2 infection rate ([19]; 0.1 µM): 99%; SARS-CoV-2 infection rate ([19]; 0.3 µM): 100%; SARS-CoV-2 infection rate ([19]; 1 µM): 110%; SARS-CoV-2 infection rate ([19]; 3 µM): 97%
